In ChEMBL document CHEMBL1201861, “Genomics of Drug Sensitity in Cancer screening data, Wellcome Trust Sanger Institute”:

Experiments:
Experiment in all cases: cells
[1] = tested on: Capan-2; type: functional, cell-based; conditions: Homo sapiens;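 further: Capan-2 cell growth inhibition, read out with a viability assay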
Description: SANGER: Inhibition of human Capan-2 cell growth in a cell viability assay.

[2] = tested on: ChaGo-K-1; type: functional, cell-based; conditions: Homo sapiens;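 further: growth inhibition of ChaGo-K-1 cells, read out with a cell viability assay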
Description: SANGER: Inhibition of human ChaGo-K-1 cell growth in a cell viability assay.

[3] = tested on: D-336MG; type: functional, cell-based; conditions: Homo sapiens
Description: SANGER: Inhibition of human D-336MG cell growth in a cell viability assay.

[4] = tested on: DoTc2-4510; type: functional, cell-based; conditions: Homo sapiens
[5] = tested on: FaDu; type: functional, cell-based; conditions: Homo sapiens;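 further: cell viability readout of growth inhibition in FaDu cells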
Description: SANGER: Inhibition of human FADU cell growth in a cell viability assay.

[6] = tested on: G-361; type: functional, cell-based; conditions: Homo sapiens
[7] = tested on: GAMG; type: functional, cell-based; conditions: Homo sapiens;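 further: cell growth inhibition measured by a viability assay in the GAMG human cell line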
Description: SANGER: Inhibition of human GAMG cell growth in a cell viability assay.

[8] = tested on: H4; type: functional, cell-based; conditions: Homo sapiens
Description: SANGER: Inhibition of human H4 cell growth in a cell viability assay.

[9] = tested on: HCC1806; type: functional, cell-based; conditions: Homo sapiens;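 further: growth inhibition of the cancer cell line, determined with a cell viability assay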
Description: SANGER: Inhibition of human HCC1806 cell growth in a cell viability assay.

[10] = tested on: HCC38; type: functional, cell-based; conditions: Homo sapiens;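 further: cell viability assay on the human HCC38 cell line, with IC50 marking the concentration that inhibits cell growth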
Description: SANGER: Inhibition of human HCC38 cell growth in a cell viability assay.

[11] = tested on: HSC-2; type: functional, cell-based; conditions: Homo sapiens;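 further: growth inhibition of human HSC-2 cells, read out by a cell viability assay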
Description: SANGER: Inhibition of human HSC-2 cell growth in a cell viability assay.

[12] = tested on: HT1197; type: functional, cell-based, HT-1197; conditions: Homo sapiens
Description: SANGER: Inhibition of human HT-1197 cell growth in a cell viability assay.

[13] = tested on: HT-29; type: functional, cell-based; conditions: Homo sapiens;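 further: growth inhibition of human HT-29 cells, read out by a cell viability assay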
Description: SANGER: Inhibition of human HT-29 cell growth in a cell viability assay.

[14] = tested on: Huh-7; type: functional, cell-based; conditions: Homo sapiens;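 further: HuH-7 cell growth inhibition, read out with a cell viability assay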
Description: SANGER: Inhibition of human HuH-7 cell growth in a cell viability assay.

[15] = tested on: HuO9; type: functional, cell-based; conditions: Homo sapiens;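 further: growth inhibition of HuO9 cells, read out with a cell viability assay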
Description: SANGER: Inhibition of human HuO9 cell growth in a cell viability assay.

[16] = tested on: KYSE-180; type: functional, cell-based; conditions: Homo sapiens;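 further: growth inhibition of KYSE-180 cells, read out with a cell viability assay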
Description: SANGER: Inhibition of human KYSE-180 cell growth in a cell viability assay.

[17] = tested on: LCLC-103H cell line; type: functional, cell-based; conditions: Homo sapiens
Description: SANGER: Inhibition of human LCLC-103H cell growth in a cell viability assay.

[18] = tested on: LoVo; type: functional, cell-based; conditions: Homo sapiens;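 further: growth inhibition of human LoVo cells, read out with a cell viability assay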
Description: SANGER: Inhibition of human LoVo cell growth in a cell viability assay.

[19] = tested on: M14; type: functional, cell-based; conditions: Homo sapiens;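 further: growth inhibition of M14 cells, read out with a cell viability assay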
Description: SANGER: Inhibition of human M14 cell growth in a cell viability assay.

[20] = tested on: MDA-MB-175-VII; type: functional, cell-based; conditions: Homo sapiens
[21] = tested on: MEL-JUSO; type: functional, cell-based; conditions: Homo sapiens;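 further: growth inhibition of human MEL-JUSO cells, read out with a cell viability assay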
Description: SANGER: Inhibition of human MEL-JUSO cell growth in a cell viability assay.

[22] = tested on: MKN-28; type: functional, cell-based; conditions: Homo sapiens;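 further: cell viability assay read-out, IC50 reflects suppression of growth of human MKN-28 cells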
Description: SANGER: Inhibition of human MKN28 cell growth in a cell viability assay.

[23] = tested on: MKN-7; type: functional, cell-based; conditions: Homo sapiens;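 further: growth inhibition of MKN-7 cells, read out with a cell viability assay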
Description: SANGER: Inhibition of human MKN7 cell growth in a cell viability assay.

[24] = tested on: NB7; type: functional, cell-based; conditions: Homo sapiens;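 further: growth inhibition of NB7 cells, read out with a cell viability assay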
Description: SANGER: Inhibition of human NB7 cell growth in a cell viability assay.

[25] = tested on: NCI-H1755; type: functional, cell-based; conditions: Homo sapiens;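 further: cell viability readout used to measure growth inhibition of NCI-H1755 cells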
Description: SANGER: Inhibition of human NCI-H1755 cell growth in a cell viability assay.

[26] = tested on: NCI-H1793; type: functional, cell-based; conditions: Homo sapiens;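 further: cell growth inhibition, read out by a cell viability assay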
Description: SANGER: Inhibition of human NCI-H1793 cell growth in a cell viability assay.

[27] = tested on: NCI-H441; type: functional, cell-based; conditions: Homo sapiens;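 further: growth inhibition of NCI-H441 cells, read out with a cell viability assay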
Description: SANGER: Inhibition of human NCI-H441 cell growth in a cell viability assay.

[28] = tested on: NUGC-3; type: functional, cell-based; conditions: Homo sapiens;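 further: growth inhibition of human NUGC-3 cells, read out with a cell viability assay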
Description: SANGER: Inhibition of human NUGC-3 cell growth in a cell viability assay.

[29] = tested on: Panc1005; type: functional, cell-based; conditions: Homo sapiens;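 further: growth inhibition of human PANC-10-05 cells, measured by a cell viability assay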
Description: SANGER: Inhibition of human PANC-10-05 cell growth in a cell viability assay.

[30] = tested on: PC-3; type: functional, cell-based; conditions: Homo sapiens;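 further: cell viability assay measuring growth inhibition of PC-3 cells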
Description: SANGER: Inhibition of human PC-3 cell growth in a cell viability assay.

[31] = tested on: PFSK-1; type: functional, cell-based; conditions: Homo sapiens;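 further: cell viability assay measuring how strongly compounds suppress growth of human PFSK-1 cells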
Description: SANGER: Inhibition of human PFSK-1 cell growth in a cell viability assay.

[32] = tested on: RT-112; type: functional, cell-based; conditions: Homo sapiens
Description: SANGER: Inhibition of human RT-112 cell growth in a cell viability assay.

[33] = tested on: SAS; type: functional, cell-based; conditions: Homo sapiens;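 further: growth inhibition of SAS cells, read out with a cell viability assay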
Description: SANGER: Inhibition of human SAS cell growth in a cell viability assay.

[34] = tested on: SCC-9; type: functional, cell-based; conditions: Homo sapiens;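 further: Read-out is a cell viability assay, with values giving inhibition of cell growth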
Description: SANGER: Inhibition of human SCC-9 cell growth in a cell viability assay.

[35] = tested on: SK-LU-1; type: functional, cell-based; conditions: Homo sapiens;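 further: cell viability assay measuring growth inhibition of human SK-LU-1 cells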
Description: SANGER: Inhibition of human SK-LU-1 cell growth in a cell viability assay.

[36] = tested on: SK-MEL3; type: functional, cell-based, SK-MEL-3; conditions: Homo sapiens;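 further: growth inhibition of human SK-MEL-3 cells, read out with a cell viability assay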
Description: SANGER: Inhibition of human SK-MEL-3 cell growth in a cell viability assay.

[37] = tested on: SW1783; type: functional, cell-based; conditions: Homo sapiens;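 further: cell growth inhibition measured with a viability assay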
Description: SANGER: Inhibition of human SW1783 cell growth in a cell viability assay.

[38] = tested on: SW837; type: functional, cell-based; conditions: Homo sapiens;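 further: growth inhibition of SW837 cells, determined with a cell viability assay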
Description: SANGER: Inhibition of human SW837 cell growth in a cell viability assay.

[39] = tested on: T47D; type: functional, cell-based; conditions: Homo sapiens;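 further: growth inhibition of human T47D cells, measured with a cell viability assay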
Description: SANGER: Inhibition of human T47D cell growth in a cell viability assay.

[40] = tested on: CWR22R; type: functional, cell-based; conditions: Homo sapiens, 22Rv1;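 further: growth inhibition of 22Rv1 cells, read out with a cell viability assay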
Description: SANGER: Inhibition of human 22RV1 cell growth in a cell viability assay.

[41] = tested on: 5637; type: functional, cell-based; conditions: Homo sapiens
Description: SANGER: Inhibition of human 5637 cell growth in a cell viability assay.

[42] = tested on: A-431; type: functional, cell-based; conditions: Homo sapiens;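 further: growth inhibition of A-431 cells, determined with a cell viability read-out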
Description: SANGER: Inhibition of human A431 cell growth in a cell viability assay.

[43] = tested on: A673; type: functional, cell-based; conditions: Homo sapiens;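 further: growth inhibition of human A673 cells, read out through a cell viability assay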
Description: SANGER: Inhibition of human A673 cell growth in a cell viability assay.

[44] = tested on: ACHN; type: functional, cell-based; conditions: Homo sapiens;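 further: cell viability read-out used to gauge how strongly growth of human ACHN cells is suppressed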
Description: SANGER: Inhibition of human ACHN cell growth in a cell viability assay.

[45] = tested on: ASPC1; type: functional, cell-based; conditions: Homo sapiens;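 further: growth inhibition of AsPC-1 cells, read out with a cell viability assay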
Description: SANGER: Inhibition of human AsPC-1 cell growth in a cell viability assay.

[46] = tested on: BCPAP; type: functional, cell-based; conditions: Homo sapiens;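 further: growth inhibition of BCPAP cells, read out in a cell viability assay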
Description: SANGER: Inhibition of human BCPAP cell growth in a cell viability assay.

[47] = tested on: BHT-101; type: functional, cell-based; conditions: Homo sapiens
Description: SANGER: Inhibition of human BHT-101 cell growth in a cell viability assay.

[48] = tested on: C-33-A; type: functional, cell-based; conditions: Homo sapiens;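 further: cell viability assay measuring growth inhibition of C-33-A cells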
Description: SANGER: Inhibition of human C-33-A cell growth in a cell viability assay.

[49] = tested on: C3A; type: functional, cell-based; conditions: Homo sapiens;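 further: growth inhibition of C3A human cells, quantified with a cell viability readout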
Description: SANGER: Inhibition of human C3A cell growth in a cell viability assay.

[50] = tested on: CAL-33; type: functional, cell-based; conditions: Homo sapiens;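 further: growth inhibition of CAL-33 cells, read out with a cell viability assay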
Description: SANGER: Inhibition of human CAL-33 cell growth in a cell viability assay.

[51] = tested on: YKG-1; type: functional, cell-based; conditions: Homo sapiens;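 further: cell growth inhibition, read out with a viability assay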
Description: SANGER: Inhibition of human YKG-1 cell growth in a cell viability assay.

[52] = tested on: TGW; type: functional, cell-based; conditions: Homo sapiens;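 further: growth inhibition of human TGW cells, read out with a cell viability assay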
Description: SANGER: Inhibition of human TGW cell growth in a cell viability assay.

Measured: IC50

Cn1cc(/C=C2\C(=O)Nc3cccnc32)c2ccccc21
1980 nM: [24]
> 2000 nM: [1] | [2] | [3] | [4] | [5] | [7] | [8] | [9] | [10] | [11] | [12] | [13] | [14] | [15] | [16] | [17] | [18] | [19] | [20] | [21] | [22] | [23] | [25] | [26] | [27] | [28] | [29] | [30] | [31] | [32] | [33] | [34] | [35] | [36] | [37] | [38] | [39] | [40] | [41] | [42] | [43] | [44] | [45] | [46] | [47] | [48] | [49] | [50] | [51]
211 nM: [6]

O=c1cc(N2CCOCC2)oc2c(-c3cccc4c3sc3ccccc34)cccc12
1460 nM: [26]
1250 nM: [24]
867 nM: [18]
> 2000 nM: [1] | [2] | [3] | [4] | [5] | [6] | [7] | [8] | [9] | [10] | [11] | [12] | [13] | [14] | [15] | [16] | [17] | [19] | [20] | [21] | [22] | [23] | [25] | [27] | [28] | [29] | [30] | [31] | [32] | [33] | [34] | [35] | [36] | [37] | [38] | [39] | [40] | [41] | [42] | [43] | [44] | [45] | [46] | [47] | [48] | [49] | [50] | [52] | [51]
